According to US4937360A, “N-substituted amide derivatives useful for treating liver diseases” (Taisho Pharmaceutical Co., Ltd., priority 1988, dated 1990):

Legend:
[1] = tested on: acute liver injury induced by carbon tetrachloride; test: Effect on acute liver injury induced by carbon tetrachloride (serum GPT); format: in vivo, male ICR strain mice; conditions: oral, mice, 18 hours; for GPT: mean ± S.E.; for Inhibition %: serum GPT vs control
Description: (§1) Effect on acute liver injury induced by carbon tetrachloride Ten male ICR strain mice (six weeks old, about 30 g of body weight) per group were used for the test. Suspensions of the compound, obtained in Example 1, in 5% gum arabic solution in various concentrations were prepared for test drugs. A 5% gum arabic solution was used as a control. The test drugs and a 5% gum arabic solution were each administered orally in an amount of 10 ml/kg of body weight to different animals. After standing for 18 hours, the animals were anesthetized with ether, the blood was drawn and centrifuged for measuring the serum GPT value. Malotilate served as a comparative test drug.

[2] = tested on: acute liver injury induced by D-galactosamine; test: Effect on acute liver injury induced by D-galactosamine (serum GPT); format: in vivo, male Wister strain rats; conditions: oral, rats, 18 hours; for GPT: mean ± S.E.; for Inhibition %: serum GPT vs control
Description: as §1, with “D-galactosamine Six” for “carbon tetrachloride Ten”, “Wister” for “ICR”, “rats (eight” for “mice (six”, “200” for “30”, “5” for “10”

| SMILES | GPT ([1]; 10 mg/kg) [IU/1] | Inhibition % ([1]; 10 mg/kg) [%] | GPT ([1]; 30 mg/kg) [IU/1] | Inhibition % ([1]; 30 mg/kg) [%] | GPT ([1]; 100 mg/kg) [IU/1] | Inhibition % ([1]; 100 mg/kg) [%] | GPT ([2]; 30 mg/kg) [IU/1] | Inhibition % ([2]; 30 mg/kg) [%] | GPT ([2]; 100 mg/kg) [IU/1] | Inhibition % ([2]; 100 mg/kg) [%] | GPT ([2]; 300 mg/kg) [IU/1] | Inhibition % ([2]; 300 mg/kg) [%] |
| --- | --- | --- | --- | --- | --- | --- | --- | --- | --- | --- | --- | --- |
| CC(=O)N(C)CC(=O)c1ccc2c(c1)OCO2 [A, N-methyl-N-(3,4-methylenedioxyphenacyl)acetamide] | 2634 ± 380 | 56 | 636 ± 245 | 89 | 39 ± 3 | 100 | 15972 ± 2810 | 22.5 | 7440 ± 757 | 64.1 | 4415 ± 1539 | 78.8 |
| CC(C)OC(=O)C(C(=O)OC(C)C)=C1SC=CS1 [B, Malotilate] | 4291 ± 1012 | 28 | 1778 ± 310 | 71 | 148 ± 40 | 98 | 19240 ± 1183 | 6.4 | 11190 ± 777 | 45.6 | 15557 ± 1669 | 24.6 |
